Source: article PMC10002984, “Dual PTP1B/TC-PTP Inhibitors: Biological Evaluation of 3-(Hydroxymethyl)cinnoline-4(1H)-Ones” (International Journal of Molecular Sciences, 2023)

Experiments:
TCPTP gene = assay: Gene expression in the liver of obese rats (qPCR), TCPTP gene; type: in vivo, rat; conditions: five-day treatment, vs Ob group
Procedure: (§1) Further, six groups were formed: control (Con, n = 10), obesity (Ob, n = 10), obese rats with five-day treatment with compounds 1 (Ob + 1, n = 5), 2 (Ob + 2, n = 5), 3 (Ob + 3, n = 10), and 4 (Ob + 4, n = 10). All compounds were administered in DMSO (300 µL) at a daily dose of 7 mg/kg (1 and 2), 8 mg/kg (3), and 10 mg/kg (4) (i.p.), based on the results of the preliminary experiments. The used doses of compounds 1–4, in terms of the number of moles of each compound per kg of animal body weight, were equivalent. Control and obese rats received DMSO in the same volumes (300 µL), instead of the tested compounds. During the five days of the experiment, all animals were transferred to standard food and had free access to food and drinking water. […] The test was carried out on the morning of the next day after the last (fifth) injection of the compounds or DMSO, after a 10 h fast. The rest of the animals (n = 5 in each group) were anesthetized and decapitated on the last day of the experiment. The blood and liver samples were taken to measure blood glucose and hormone levels and gene expression in the liver.
The total RNA was isolated from the liver samples of rats using the “ExtractRNA Reagent” (Evrogen, Moscow, Russia), and the samples containing 1 μg of RNA were transcribed to cDNA using the random oligodeoxynucleotide primers and the “MMLV RT kit” (Evrogen, Russia). The amplification procedure was carried out in the mixture containing 10 ng of reverse transcribed product, 0.4 μM of the forward and reverse primers, and the “qPCRmix-HS SYBR + LowROX kit” (Evrogen, Russia). The amplified signals were detected using the “Applied Biosystems® 7500 Real-Time PCR System” (Life Technologies, Carlsbad, CA, USA, Thermo Fisher Scientific Inc., USA). The primers that were used to assess the expression of genes encoding the phosphatase PTP1B, TC-PTP, and SHP1 and the insulin and leptin receptors are presented in Table 4. The obtained data were calculated with the delta–delta Ct method and expressed as a fold expression, relative to the corresponding control. […]

PTP1B gene = assay: Gene expression in the liver of obese rats (qPCR), PTP1B gene; type: in vivo, rat; conditions: five-day treatment, vs Ob group
Procedure: (§2) Further, six groups were formed: control (Con, n = 10), obesity (Ob, n = 10), obese rats with five-day treatment with compounds 1 (Ob + 1, n = 5), 2 (Ob + 2, n = 5), 3 (Ob + 3, n = 10), and 4 (Ob + 4, n = 10). All compounds were administered in DMSO (300 µL) at a daily dose of 7 mg/kg (1 and 2), 8 mg/kg (3), and 10 mg/kg (4) (i.p.), based on the results of the preliminary experiments. The used doses of compounds 1–4, in terms of the number of moles of each compound per kg of animal body weight, were equivalent. Control and obese rats received DMSO in the same volumes (300 µL), instead of the tested compounds. During the five days of the experiment, all animals were transferred to standard food and had free access to food and drinking water. […]
(§3) The total RNA was isolated from the liver samples of rats using the “ExtractRNA Reagent” (Evrogen, Moscow, Russia), and the samples containing 1 μg of RNA were transcribed to cDNA using the random oligodeoxynucleotide primers and the “MMLV RT kit” (Evrogen, Russia). […] The amplified signals were detected using the “Applied Biosystems® 7500 Real-Time PCR System” (Life Technologies, Carlsbad, CA, USA, Thermo Fisher Scientific Inc., USA). […] The obtained data were calculated with the delta–delta Ct method and expressed as a fold expression, relative to the corresponding control. […]

[1] = tested on: insulin receptor gene (InsR); assay: Gene expression in the liver of obese rats (qPCR), insulin receptor gene; type: in vivo, rat; conditions: five-day treatment, difference with Ob group not significant
Procedure: as §2, §3

[2] = tested on: male rats with HFD-induced obesity; assay: Body weight and food intake in obese rats, five-day treatment; type: in vivo, male Wistar rats; conditions: five-day treatment i.p., 3 8 mg/kg/day, 4 10 mg/kg/day; for reduction of body weight in obese rats: p < 0.05 vs untreated obese animals; for reduction of the consumption of dry standard food: obese rats
Procedure: The male Wistar rats (at the start of the experiment the age of the animals was 2-months, and at the end of the experiment their age was 6-months) were obtained from the Rappolovo animal facility (Russia). The animals were housed in plastic cages, five animals in each, with a normal light–dark cycle (12 h/12 h), a temperature of 22 ± 3 °C, and free access to food and water. All experiments were approved by the Institutional Animal Care and Use Committee at the Sechenov Institute of Evolutionary Physiology and Biochemistry (St. Petersburg, Russia) (protocol No 02/02-2020, 19 February 2020) and according to The Guide for the Care and Use of Laboratory Animals and the European Communities Council Directive of 1986 (86/609/EEC). All efforts were made to minimize animal suffering and reduce the number of experimental animals.
(§4) The obesity model was induced at 16-weeks (starting at two months of age) using a high-fat diet. Control animals received standard laboratory chow pellets. The high-fat diet included supplements of 5–7 g of a fat mixture containing 52.4% pork lard, 41.7% curd, 5% liver, 0.5% L-methionine, 0.2% baker’s yeast, and 0.2% sodium chloride. After 16-weeks on a high-fat diet, the animals with increased body weight, glucose intolerance, and hyperinsulinemia, and hyperleptinemia were selected for further experiments. The glucose intolerance was estimated according to the results of the glucose tolerance test (GTT). In the GTT, 120 min after glucose loading, the blood glucose levels in obese rats were above 7 mM, and the AUC0-120 values for the curve “glucose concentration (mM)–time (minutes)” were above 30%, as compared to the average AUC0-120 values in the control group.
as §1, with “The blood and liver samples were taken to measure blood glucose and hormone levels and gene expression in the liver.” left out

[3] = tested on: male rats with HFD-induced obesity; assay: Glucose tolerance test in obese rats after five-day treatment; type: in vivo, male Wistar rats; conditions: 4 10 mg/kg/day; for reduction of AUC0-120 of the glucose concentration curve vs untreated animals: GTT after five-day treatment, p < 0.05 vs Ob group; for reduction of AUC0-120 of the glucose concentration curve vs untreated animals / reduction of glucose level 120 min after glucose load vs untreated obese animals: 3 8 mg/kg/day; for reduction of glucose level 120 min after glucose load vs untreated obese animals: GTT glucose 2 g/kg i.p. after five-day treatment
Source text: as §4, §1
The glucose levels in the blood obtained from the tail vein were measured using a glucometer (Life Scan Johnson & Johnson, Denmark) and the test strips “One Touch Ultra” (USA). The levels of insulin and leptin in rat serum were estimated with the “Rat Insulin ELISA” (Mercodia AB, Uppsala, Sweden) and “ELISA for Leptin, Rat” (Cloud-Clone Corporation, Houston, TX, USA) kits. The GTT was carried out using a single injection of glucose (2 g/kg, i.p.) after 10 h of fasting, as described earlier. The blood glucose levels were measured before (0 min) and 15, 30, 60, and 120 min after the glucose load.

[4] = tested on: leptin receptor gene (LepR); assay: Gene expression in the liver of obese rats (qPCR), leptin receptor gene; type: in vivo, rat; conditions: five-day treatment, difference with Ob group not significant
Procedure: as §2, §3

Compound | expression of the TCPTP gene in the liver (TCPTP gene) | expression of the PTP1B gene in the liver (PTP1B gene) | expression of the gene encoding the insulin receptor in the liver [1] | reduction of body weight in obese rats [2] | reduction of the consumption of dry standard food [2] | reduction of AUC0-120 of the glucose concentration curve vs untreated animals [3] | reduction of glucose level 120 min after glucose load vs untreated obese animals [3] | glucose sensitivity in the glucose tolerance test ([3]; obese rats, five-day treatment) | expression of the gene encoding the leptin receptor in the liver [4]
O=c1c(CO)n[nH]c2ccc(Br)cc12 [Compound 4, 6-Bromo-3-(hydroxymethyl)cinnolin-4(1H)-one] | significant difference to the Ob group | significant difference to the Ob group | slight decrease | 22.6 ± 4.0 g | 39% | 20% | 17% | improved | slight decrease
O=c1c(CO)n[nH]c2ccc(Cl)cc12 [Compound 3, 6-Chloro-3-(hydroxymethyl)cinnolin-4(1H)-one] | significant difference to the Ob group | significant difference to the Ob group | slight decrease | 22.2 ± 4.5 g | 46% | 24% | 20% |  | slight decrease
O=c1c(CO)n[nH]c2ccccc12 [Compound 1] | significant difference to the Ob group |  |  |  |  |  |  |  | 
